Measured values from patent US3966734A, “Method for the purification of 6-methoxy-1-phenazinol 5,10-dioxide” (Hoffmann-La Roche Inc., priority 1975, dated 1976).

Assays:
[1] = test system: M. canis; assay: In vitro anti-microbial activity (minimum inhibitory concentration) against M. canis; type: cell-based
Procedure: (§1) For example, the anti-microbial activity of calcium myxin dihydrate, prepared by the method of this invention, is evaluated and compared to that of myxin itself both in vivo against 4 strains of bacteria and in vitro against yeast and fungus infections.

[2] = test system: S. aureus; assay: In vivo anti-microbial activity against S. aureus
Procedure: as §1

[3] = test system: P. aeruginosa; assay: In vivo anti-microbial activity against P. aeruginosa
Procedure: as §1

[4] = test system: S. agalactiae; assay: In vivo anti-microbial activity against S. agalactiae
Procedure: as §1

[5] = test system: C. albicans; assay: In vitro anti-microbial activity (minimum inhibitory concentration) against C. albicans; type: cell-based
Procedure: as §1

[6] = test system: E. coli; assay: In vivo anti-microbial activity against E. coli
Procedure: as §1

[7] = Solubility in water; type: physicochemical
[8] = test system: gram positive and gram negative bacteria, fungi, protozoa and helminths; assay: Anti-microbial activity in in vitro tests and in vivo topical infections (general statement)

Compound | Minimum Inhibitory Concentration, cidal ([1]; cidal) [µg/mL] | Minimum Inhibitory Concentration, static ([1]; static) [µg/mL] | ED50' (in vivo) [2] [µg/mL] | ED50' (in vivo) [3] [µg/mL] | ED50' (in vivo) [4] [µg/mL] | Minimum Inhibitory Concentration, cidal ([5]; cidal) [µg/mL] | Minimum Inhibitory Concentration, static ([5]; static) [µg/mL] | ED50' (in vivo) [6] [µg/mL] | solubility in water [7] | anti-microbial activity [8]
6-methoxy-1-phenazinol 5,10-dioxide, calcium dihydrate complex [Calcium Myxin Dihydrate] | < 0.8 | < 0.8 | < 20 | 20 | < 4 | < 0.8 | < 0.8 | 60 |  | 
COc1cccc2c1[n+]([O-])c1cccc(O)c1[n+]2[O-] [Myxin, 6-methoxy-1-phenazinol 5,10-dioxide] |  |  |  |  |  |  |  |  | very slightly soluble in water | high degree and wide spectrum of anti-microbial activity
